In assay [1] the target is HCV RNA-dependent RNA polymerase (NS5B) (Hepatitis C virus genotype 1b (isolate BK) (HCV), UniProt P26663). Briefly: RNA-Dependent RNA HCV NS5B (polymerase) Assay and IC50 Determination. It counts as biochemical. To be noted: purified HCV NS5B polymerase, polyA:U16 substrate, 32P-UTP incorporation. An outline of the steps:
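Purified NS5B was incubated with 0.5 uM polyA:U16, 10 μM UTP plus ^32P-UTP in 50 mM Hepes-KOH pH 7.5, 5 mM MgCl2, 5 mM DTT, 2% glycerol and 0.01% Triton X-100. Inhibitor reactions ran 60 min at 37° C, and radiolabelled RNA product was quantified after filter capture. IC50 values were obtained from concentration series.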

The subject of assay [2] is HCV subgenomic RNA replicon in Huh-luc/neo-ET cells. Briefly: HCV Replicon Assay and EC50 Determination. In kind it is cell-based. To be noted: Hepatitis C virus, 72 hours, luciferase reporter activity. How it is done: HCV Replicon Assay and EC50 Determination.
HCV replicon assay is based on the luciferase reporter cell line (Huh-luc/neo-ET). This reporter cell line is a human liver carcinoma cell line (Huh-7) stably transfected with an autonomously replicating bicistronic HCV subgenomic RNA replicon (Lohmann et al., 1999, Science, 285, 110-113). Inhibition of HCV RNA replication was monitored through analysis of reporter luciferase activity. Briefly, HCV replicon cells were incubated with inhibitors for 72 hours at 37° C. After the incubation, duplicate plates were treated and incubated in parallel for assessment of cellular toxicity by XTT staining and anti-HCV activity by measurement of luciferase reporter activity. Either human interferon alpha 2B or ribavirin was used as a reference compound. EC50 values were determined using GraFit (Erithaus software) or Excel.
Table 2 presents EC50 data obtained using this HCV replicaon assay to test representative compounds. Data are presented as follows: “+++” means <0.1 μM; “++” means ≥0.1 μM and <1.0 μM; “+” means ≥1.0 μM.

The structures appear in SMILES notation. Like-named read-outs stand apart in the source and are kept apart here.

Chain of HCV RNA-dependent RNA polymerase (NS5B) (P26663 2420-3010): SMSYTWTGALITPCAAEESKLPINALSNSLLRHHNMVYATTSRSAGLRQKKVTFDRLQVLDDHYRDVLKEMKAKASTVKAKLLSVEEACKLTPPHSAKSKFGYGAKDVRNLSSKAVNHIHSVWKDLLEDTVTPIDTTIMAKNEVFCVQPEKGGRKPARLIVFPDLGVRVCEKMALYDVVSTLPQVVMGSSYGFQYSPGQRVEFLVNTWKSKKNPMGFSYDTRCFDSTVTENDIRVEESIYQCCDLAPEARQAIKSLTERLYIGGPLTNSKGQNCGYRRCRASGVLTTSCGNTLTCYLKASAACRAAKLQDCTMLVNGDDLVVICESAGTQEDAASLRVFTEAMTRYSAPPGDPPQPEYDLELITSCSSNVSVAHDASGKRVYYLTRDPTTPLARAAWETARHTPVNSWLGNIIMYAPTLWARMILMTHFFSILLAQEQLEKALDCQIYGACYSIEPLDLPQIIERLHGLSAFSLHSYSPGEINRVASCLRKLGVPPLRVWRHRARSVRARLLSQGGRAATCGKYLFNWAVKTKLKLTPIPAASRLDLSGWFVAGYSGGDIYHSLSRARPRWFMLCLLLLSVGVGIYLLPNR

The compound `CNC(=O)c1c(-c2ccc(F)cc2)oc2cc(N(CCOC(=O)CNC(=O)CCCC(=O)O)S(C)(=O)=O)c(C3CC3)cc12` [Compound 08-6, 4-[(2-{[5-Cyclopropyl-2-(4-fluoro-phenyl)-3-methylcarbamoyl-benzofuran-6-yl]-methanesulfonyl-amino}-ethoxycarbonylmethyl)-carbamoyl]-butyric Acid] came in with an IC50 in assay [1] (IC50 (μM)) of 0.1 to 1 µM. Besides, in assay [2], the half-maximal effective concentration (EC50) fell in the range of 100 to 1000 nM.

For the compound `CNC(=O)c1c(-c2ccc(F)cc2)oc2cc(N(CC(=O)NCC(=O)NCc3cccc(C(=O)/C=C(\O)C(=O)O)c3)S(C)(=O)=O)c(C3CC3)cc12` [Compound 09-14A, 4-(3-{[2-(2-{[5-Cyclopropyl-2-(4-fluoro-phenyl)-3-methylcarbamoyl-benzofuran-6-yl]-methanesulfonyl-amino}-acetylamino)-acetylamino]-methyl}-phenyl)-2-hydroxy-4-oxo-but-2-enoic Acid], the IC50 in assay [1] (read-out: IC50) lay in the range of 0.1 to 1 µM. This compound also yielded an EC50 in assay [2] of 100 to 1000 nM.

As for `CNC(=O)c1c(-c2ccc(F)cc2)oc2cc(N(CC(=O)NC(C)(C)C(=O)NCc3cccc(C(=O)C=C(O)C(=O)O)c3)S(C)(=O)=O)c(C3CC3)cc12` [Compound 09-14C, 4-(3-{[2-(2-{[5-Cyclopropyl-2-(4-fluoro-phenyl)-3-methylcarbamoyl-benzofuran-6-yl]-methanesulfonyl-amino}-acetylamino)-2-methyl-propionylamino]-methyl}-phenyl)-2-hydroxy-4-oxo-but-2-enoic Acid], the IC50 in assay [1] (read-out: IC50) was > 1 µM. This compound also gave an EC50 in assay [2] of 100 to 1000 nM.

For the compound `CNC(=O)c1c(-c2ccc(F)cc2)oc2cc(N(CC(=O)NC3(C(=O)NCc4cccc(C(=O)C=C(O)C(=O)O)c4)CCCC3)S(C)(=O)=O)c(C3CC3)cc12` [Compound 09-14E, 4-[3-({[1-(2-{[5-Cyclopropyl-2-(4-fluoro-phenyl)-3-methylcarbamoyl-benzofuran-6-yl]-methanesulfonyl-amino}-acetylamino)-cyclopentanecarbonyl]-amino}-methyl)-phenyl]-2-hydroxy-4-oxo-but-2-enoic Acid], the IC50 in assay [1] (read-out: IC50) was > 1 µM. Further, in assay [2], the EC50 lay within 100 to 1000 nM.

On to `CNC(=O)c1c(-c2ccc(F)cc2)oc2cc(N(CC(=O)NC(C)C(=O)NCc3cccc(C(=O)C=C(O)C(=O)O)c3)S(C)(=O)=O)c(C3CC3)cc12` (stereo not drawn) [Compound 09-14F, 4-(3-{[2-(2-{[5-Cyclopropyl-2-(4-fluoro-phenyl)-3-methylcarbamoyl-benzofuran-6-yl]-methanesulfonyl-amino}-acetylamino)-propionylamino]-methyl}-phenyl)-2-hydroxy-4-oxo-but-2-enoic Acid], for which the half-maximal inhibitory concentration (IC50) in assay [1] (read-out: IC50) was > 1 µM. Moreover, the concentration for a half-maximal effect (EC50) in assay [2] fell in the range of 100 to 1000 nM.

For `CNC(=O)c1c(-c2ccc(F)cc2)oc2cc(N(CCCCOCCc3ccc(C(=O)O)cc3)S(C)(=O)=O)c(C3CC3)cc12` [Compound 13-8C, 4-(2-(4-(N-(5-cyclopropyl-2-(4-fluorophenyl)-3-(methylcarbamoyl)benzofuran-6-yl)-methylsulfonamido)butoxy)-ethyl)benzoic Acid], the IC50 in assay [1] (read-out: IC50) fell in the range of 0.1 to 1 µM. The concentration for a half-maximal effect (EC50) in assay [2] was < 100 nM.

`CNC(=O)c1c(-c2ccc(F)cc2)oc2cc(N(CCCCCCCc3ccc(C(=O)O)cc3)S(C)(=O)=O)c(C3CC3)cc12` [Compound 13-8D, 4-(7-{[5-Cyclopropyl-2-(4-fluoro-phenyl)-3-methylcarbamoyl-benzofuran-6-yl]-methanesulfonyl-amino}-heptyl)-benzoic Acid]: the IC50 in assay [1] (read-out: IC50) was in the range of 0.1 to 1 µM. Further, the half-maximal effective concentration (EC50) in assay [2] was < 100 nM.

For `CNC(=O)c1c(-c2ccc(F)cc2)oc2cc(N(CCCCCOCc3ccc(C(=O)O)cc3)S(C)(=O)=O)c(C3CC3)cc12` [Compound 16-7, 4-(5-{[5-Cyclopropyl-2-(4-fluoro-phenyl)-3-methylcarbamoyl-benzofuran-6-yl]-methanesulfonyl-amino}-pentyloxymethyl)-benzoic Acid], in assay [1] (read-out: IC50), the IC50 was 0.1 to 1 µM. Also, in assay [2], the concentration giving a half-maximal response (EC50) is < 100 nM.

For the compound `CNC(=O)c1c(-c2ccc(F)cc2)oc2cc(N(CCOCCOCc3ccc(F)c(C(=O)O)c3)S(C)(=O)=O)c(C3CC3)cc12` [Compound 17A-8A, 5-[2-(2-{[5-Cyclopropyl-2-(4-fluoro-phenyl)-3-methylcarbamoyl-benzofuran-6-yl]-methanesulfonyl-amino}-ethoxy)-ethoxymethyl]-2-fluoro-benzoic Acid], the 50% inhibitory concentration (IC50) in assay [1] (read-out: IC50) was in the range of 0.1 to 1 µM. Besides, the EC50 in assay [2] is < 100 nM.

With `CNC(=O)c1c(-c2ccc(F)cc2)oc2cc(N(CCOCCOCc3ccc(OC)c(C(=O)O)c3)S(C)(=O)=O)c(C3CC3)cc12` [Compound 17B-8, 5-[2-(2-{[5-Cyclopropyl-2-(4-fluoro-phenyl)-3-methylcarbamoyl-benzofuran-6-yl]-methanesulfonyl-amino}-ethoxy)-ethoxymethyl]-2-methoxy-benzoic Acid], the IC50 in assay [1] (read-out: IC50) is 0.1 to 1 µM. In assay [2], this compound gave an EC50 of 100 to 1000 nM.

In the case of `CNC(=O)c1c(-c2ccc(F)cc2)oc2cc(N(CCOCCCc3cccc(C(=O)/C=C(\O)C(=O)O)c3)S(C)(=O)=O)c(C3CC3)cc12` [Compound 22-12, 4-(3-(3-(2-(N-(5-cyclopropyl-2-(4-fluorophenyl)-3-(methylcarbamoyl)benzofuran-6-yl)methylsulfonamido)-ethoxy)-propyl)-phenyl)-2-hydroxy-4-oxobut-2-enoic Acid], in assay [1] (read-out: IC50), the IC50 is > 1 µM. Moreover, in assay [2], the half-maximal effective concentration (EC50) is < 100 nM.

As for `CNC(=O)c1c(-c2ccc(F)cc2)oc2cc(N(CCOCCOCCOCC(=O)O)S(C)(=O)=O)c(C3CC3)cc12` [Compound 23-6A, {2-[2-(2-{[5-Cyclopropyl-2-(4-fluoro-phenyl)-3-methylcarbamoyl-benzofuran-6-yl]-methanesulfonyl-amino}-ethoxy)-ethoxy]-ethoxy}-acetic Acid], the IC50 in assay [1] (read-out: IC50) was in the range of 0.1 to 1 µM. This compound also had an EC50 in assay [2] of 100 to 1000 nM.

For `CNC(=O)c1c(-c2ccc(F)cc2)oc2cc(N(CCOCCOCCOC(C)C(=O)O)S(C)(=O)=O)c(C3CC3)cc12` (stereo not drawn) [Compound 23-6B, 2-{2-[2-(2-{[5-Cyclopropyl-2-(4-fluoro-phenyl)-3-methylcarbamoyl-benzofuran-6-yl]-methanesulfonyl-amino}-ethoxy)-ethoxy]-ethoxy}-propionic Acid], in assay [1] (read-out: IC50), the IC50 fell in the range of 0.1 to 1 µM. The EC50 in assay [2] was < 100 nM.

For `CNC(=O)c1c(-c2ccc(F)cc2)oc2cc(N(CCOCCOCCOCC(=O)NO)S(C)(=O)=O)c(C3CC3)cc12` [Compound 23-6C, 5-Cyclopropyl-2-(4-fluoro-phenyl)-6-({2-[2-(2-hydroxycarbamoylmethoxy-ethoxy)-ethoxy]-ethyl}-methanesulfonyl-amino)-benzofuran-3-carboxylic Acid Methylamide], the half-maximal inhibitory concentration (IC50) in assay [1] (IC50 (μM)) was 0.1 to 1 µM. In assay [2], the EC50 was < 100 nM.

As to `CNC(=O)c1c(-c2ccc(F)cc2)oc2cc(N(CCOCCOCCOC(C(=O)O)c3ccccc3)S(C)(=O)=O)c(C3CC3)cc12` (stereo not drawn) [Compound 25-5, {2-[2-(2-{[5-Cyclopropyl-2-(4-fluoro-phenyl)-3-methylcarbamoyl-benzofuran-6-yl]-methanesulfonyl-amino}-ethoxy)-ethoxy]-ethoxy}-phenyl-acetic Acid], in assay [1] (read-out: IC50), the concentration for half-maximal inhibition (IC50) was 0.1 to 1 µM. The compound also had a concentration giving a half-maximal response (EC50) in assay [2] of 100 to 1000 nM.

The record behind these values is patent US10947210B2 (priority 2015, dated 2021).
